The nature of data set [1]: Photobleaching rate under white light from a xenon lamp. To be noted: single exponential decay fit of absorbance. In kind it is physicochemical. The method, boiled down: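 Photostability was scored as a photobleaching rate, expressed relative to the unsubstituted parent dye. Dyes were irradiated with white light from a xenon lamp while absorbance was monitored. The rate was derived by fitting a single exponential decay to the absorbance over time.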

The nature of data set [2]: Fluorescence emission spectra and fluorescence quantum yield (FQY) of dyes. It counts as physicochemical. An excerpt:
(§1) Similar methods were used to prepare additional dyes.

The nature of data set [3]: One-photon absorption spectra of dyes (λmax abs, logε). In kind it is physicochemical.
Text: as §1

Data set [4] in a line: Voltage sensitivity: fluorescence change for a 100 millivolt step in membrane potential.

As for `CCCCN(CCCC)c1ccc2cc(/C=C/c3c(F)c[n+](CCC[N+](CC)(CC)CC)c4ccccc34)ccc2c1` [PY3304], the “Photobleaching rate (Relative to unsubstituted dye)” value in data set [1] was 5.26. For the same molecule, the results for the FQY in data set [2] (Ethanol), in data set [2] (Lipid vesicles) and in data set [2] (PBS buffer) were 0.001, 0.03 and “— (FQY < 0.001)”, respectively. Also, the λmax em in data set [2] (Ethanol) was 825 nm; in data set [2] (Lipid vesicles) it was 686 nm. Moreover, the results for the logε in data set [3] (Ethanol), in data set [3] (Lipid vesicles) and in data set [3] (PBS buffer) were 4.4, 4.2 and 4.0, respectively. The λmax abs in data set [3] (Ethanol) is 617 nm; in data set [3] (Lipid vesicles), 547 nm; in data set [3] (PBS buffer), 565 nm. In addition, in data set [4] (Ex/Em 645/>745 nm), the “Voltage sensitivity ΔF/F per 100 mV” value was 12% 645/ >745.
Regarding `CCCCN(CCCC)c1ccc2cc(/C=C/c3cc[n+](CCC[N+](CC)(CC)CC)cc3F)ccc2c1` [PY3128], the “Photobleaching rate (Relative to unsubstituted dye)” value in data set [1] turned out to be 0.63. Moreover, the FQY in data set [2] (Ethanol) was 0.002; in data set [2] (Lipid vesicles), 0.26; in data set [2] (PBS buffer), “— (FQY < 0.001)”. Moreover, the λmax em in data set [2] (Ethanol) is 720 nm; in data set [2] (Lipid vesicles), 632 nm. Further, the logε in data set [3] (Ethanol) is listed as 4.4; in data set [3] (Lipid vesicles) it was 4.3; in data set [3] (PBS buffer), 4.2. For the same molecule, the λmax abs is 545 nm in data set [3] (Ethanol), 495 nm in data set [3] (Lipid vesicles) and 506 nm in data set [3] (PBS buffer). The “Voltage sensitivity ΔF/F per 100 mV” value in data set [4] (Ex/Em 590/>695 nm) came out at 6% 590/ >695.
As to `CCCCN(CCCC)c1ccc2cc(/C=C/c3cc[n+](CCC[N+](CC)(CC)CC)cc3)ccc2c1C(F)(F)F` [PY4093], the “Photobleaching rate (Relative to unsubstituted dye)” value in data set [1] is given as 0.95. In addition, the results for the FQY in data set [2] (Ethanol), in data set [2] (Lipid vesicles) and in data set [2] (PBS buffer) were 0.046, 0.35 and 0.005, respectively. Also, the λmax em was found to be 687 nm in data set [2] (Ethanol), 597 nm in data set [2] (Lipid vesicles) and 715 nm in data set [2] (PBS buffer). Also, the logε in data set [3] (Ethanol) stood at 4.6; in data set [3] (Lipid vesicles) it was 4.5; in data set [3] (PBS buffer), 4.3. Besides, the λmax abs in data set [3] (Ethanol) came to 449 nm; in data set [3] (Lipid vesicles), 418 nm; in data set [3] (PBS buffer), 430 nm. Moreover, in data set [4] (Ex/Em 530/>645 nm), the “Voltage sensitivity ΔF/F per 100 mV” value was determined as 8% 530/ >645.
Turning to `CCCCN(CCCC)c1ccc2cc(/C=C(\F)c3cc[n+](CCC[N+](CC)(CC)CC)cc3)ccc2c1` [PY3006], in data set [1], the “Photobleaching rate (Relative to unsubstituted dye)” value worked out at 0.63. The FQY was 0.001 in data set [2] (Ethanol), 0.16 in data set [2] (Lipid vesicles) and “— (FQY < 0.001)” in data set [2] (PBS buffer). The λmax em was found to be 720 nm in data set [2] (Ethanol) and 636 nm in data set [2] (Lipid vesicles). In addition, the logε in data set [3] (Ethanol) is 4.5; in data set [3] (Lipid vesicles), 4.4; in data set [3] (PBS buffer), 4.2. For the same molecule, the λmax abs in data set [3] (Ethanol) is 539 nm; in data set [3] (Lipid vesicles) it was 488 nm; in data set [3] (PBS buffer), 493 nm. Also, the “Voltage sensitivity ΔF/F per 100 mV” value in data set [4] (Ex/Em 578/>695 nm) stood at 12% 578/ >695.
`CCCCN(CCCC)c1ccc2cc(/C=C/c3cc[n+](CCC[N+](CC)(CC)CC)cc3)ccc2c1F` [PY3174]: in data set [1], the “Photobleaching rate (Relative to unsubstituted dye)” value worked out at 0.83. Also, the FQY in data set [2] (Ethanol) came out at 0.007; in data set [2] (Lipid vesicles) it was 0.25; in data set [2] (PBS buffer) it was 0.002. For the same molecule, the figures for the λmax em in data set [2] (Ethanol), in data set [2] (Lipid vesicles) and in data set [2] (PBS buffer) were 704 nm, 610 nm and 666 nm, respectively. In addition, the logε in data set [3] (Ethanol) is listed as 4.4; in data set [3] (Lipid vesicles) it was 4.3; in data set [3] (PBS buffer) it was 4.2. Also, the λmax abs in data set [3] (Ethanol) is 481 nm; in data set [3] (Lipid vesicles), 444 nm; in data set [3] (PBS buffer), 401 nm. In addition, in data set [4] (Ex/Em 545/>695 nm), the “Voltage sensitivity ΔF/F per 100 mV” value is listed as 6% 545/ >695.
With `CCCCN(CCCC)c1ccc2cc(/C=C/c3c(F)c[n+](CCC[N+](CC)(CC)CC)cc3F)ccc2c1` [PY3184], in data set [1], the “Photobleaching rate (Relative to unsubstituted dye)” value came out at 1.56. The FQY is 0.004 in data set [2] (Ethanol), 0.18 in data set [2] (Lipid vesicles) and “— (FQY < 0.001)” in data set [2] (PBS buffer). The figures for the λmax em in data set [2] (Ethanol) and in data set [2] (Lipid vesicles) were 658 nm and 646 nm, respectively. Further, the logε in data set [3] (Ethanol) was found to be 4.6; in data set [3] (Lipid vesicles) it was 4.3; in data set [3] (PBS buffer), 4.2. Also, the λmax abs stood at 569 nm in data set [3] (Ethanol), 511 nm in data set [3] (Lipid vesicles) and 530 nm in data set [3] (PBS buffer). Besides, in data set [4] (Ex/Em 610/>695 nm), the “Voltage sensitivity ΔF/F per 100 mV” value came out at 11% 610/ >695.
Consider `CCCCN(CCCC)c1ccc2cc(/C=C(\F)c3cc[n+](CCC[N+](CC)(CC)CC)cc3F)ccc2c1F` [PY4158], for which the “Photobleaching rate (Relative to unsubstituted dye)” value in data set [1] is on record as 0.89. Further, the FQY in data set [2] (Ethanol) is 0.003; in data set [2] (Lipid vesicles), 0.23; in data set [2] (PBS buffer) it was “— (FQY < 0.001)”. For the same molecule, the λmax em in data set [2] (Ethanol) amounted to 845 nm; in data set [2] (Lipid vesicles) it was 651 nm. Also, the logε is 4.3 in data set [3] (Ethanol), 4.2 in data set [3] (Lipid vesicles) and 4.0 in data set [3] (PBS buffer). The λmax abs in data set [3] (Ethanol) is reported as 510 nm; in data set [3] (Lipid vesicles), 470 nm; in data set [3] (PBS buffer) it was 408 nm. In data set [4] (Ex/Em 580/>695 nm), the “Voltage sensitivity ΔF/F per 100 mV” value worked out at 7% 580/ >695.
For `CCCCN(CCCC)c1ccc2cc(/C=C(\F)c3cc[n+](CCC[N+](CC)(CC)CC)cc3)ccc2c1F` [PY4038], the “Photobleaching rate (Relative to unsubstituted dye)” value in data set [1] was determined as 0.62. In addition, the FQY in data set [2] (Ethanol) is given as 0.001; in data set [2] (Lipid vesicles), 0.26; in data set [2] (PBS buffer) it was “— (FQY < 0.001)”. The λmax em in data set [2] (Ethanol) was found to be 760 nm; in data set [2] (Lipid vesicles), 643 nm. The logε is recorded as 4.4 in data set [3] (Ethanol), 4.3 in data set [3] (Lipid vesicles) and 4.0 in data set [3] (PBS buffer). In addition, the λmax abs in data set [3] (Ethanol) was determined as 497 nm; in data set [3] (Lipid vesicles) it was 464 nm; in data set [3] (PBS buffer), 409 nm. Besides, the “Voltage sensitivity ΔF/F per 100 mV” value in data set [4] (Ex/Em 578/>695 nm) was found to be 7% 578/ >695.
On to `CCCCN(CCCC)c1ccc2cc(/C=C/c3cc[n+](CCC[N+](CC)(CC)CC)cc3F)ccc2c1F` [PY3179], for which the “Photobleaching rate (Relative to unsubstituted dye)” value in data set [1] stood at 0.91. In addition, the figures for the FQY in data set [2] (Ethanol), in data set [2] (Lipid vesicles) and in data set [2] (PBS buffer) were 0.003, 0.22 and “— (FQY < 0.001)”, respectively. Moreover, the λmax em in data set [2] (Ethanol) amounted to 720 nm; in data set [2] (Lipid vesicles) it was 632 nm. For the same molecule, the logε was 4.3 in data set [3] (Ethanol), 4.3 in data set [3] (Lipid vesicles) and 4.1 in data set [3] (PBS buffer). The figures for the λmax abs in data set [3] (Ethanol), in data set [3] (Lipid vesicles) and in data set [3] (PBS buffer) were 509 nm, 465 nm and 414 nm, respectively. Moreover, the “Voltage sensitivity ΔF/F per 100 mV” value in data set [4] (Ex/Em 572/>695 nm) is given as 18% 572/ >695.
As to `CCCCN(CCCC)c1ccc2cc(/C=C/c3c(F)c[n+](CCC[N+](CC)(CC)CC)c4ccccc34)ccc2c1` [PY4221], the FQY result was “— (FQY < 0.001)” in data set [2] (Ethanol), 0.07 in data set [2] (Lipid vesicles) and “— (FQY < 0.001)” in data set [2] (PBS buffer). The λmax em in data set [2] (Lipid vesicles) turned out to be 743 nm. In addition, the logε in data set [3] (Ethanol) is listed as 4.4; in data set [3] (Lipid vesicles), 4.2; in data set [3] (PBS buffer), 4.1. In addition, the λmax abs came out at 627 nm in data set [3] (Ethanol), 553 nm in data set [3] (Lipid vesicles) and 537 nm in data set [3] (PBS buffer). Besides, the “Voltage sensitivity ΔF/F per 100 mV” value in data set [4] (Ex/Em 670/>780 nm) worked out at 6% 670/ >780.
`CCCCN(CCCC)c1ccc2cc(/C=C(\F)c3cc[n+](CCC[N+](CC)(CC)CC)cc3F)ccc2c1` [PY4160]: in data set [1], the “Photobleaching rate (Relative to unsubstituted dye)” value turned out to be 0.66. For the same molecule, the FQY in data set [2] (Ethanol) is 0.003; in data set [2] (Lipid vesicles), 0.21; in data set [2] (PBS buffer), “— (FQY < 0.001)”. In addition, the λmax em was 710 nm in data set [2] (Ethanol) and 660 nm in data set [2] (Lipid vesicles). Besides, the logε in data set [3] (Ethanol) is reported as 4.6; in data set [3] (Lipid vesicles) it was 4.5; in data set [3] (PBS buffer), 4.4. Besides, the λmax abs in data set [3] (Ethanol) was determined as 558 nm; in data set [3] (Lipid vesicles), 500 nm; in data set [3] (PBS buffer), 513 nm. In addition, the “Voltage sensitivity ΔF/F per 100 mV” value in data set [4] (Ex/Em 602/>695 nm) is listed as 10% 602/ >695.
As to `CCCCN(CCCC)c1ccc2cc(/C=C(\F)c3cc[n+](CCC[N+](CC)(CC)CC)cc3)ccc2c1C(F)(F)F` [PY4125], the “Photobleaching rate (Relative to unsubstituted dye)” value in data set [1] is listed as 1.35. The FQY turned out to be 0.006 in data set [2] (Ethanol), 0.30 in data set [2] (Lipid vesicles) and 0.004 in data set [2] (PBS buffer). The λmax em in data set [2] (Ethanol) was found to be 694 nm; in data set [2] (Lipid vesicles), 590 nm; in data set [2] (PBS buffer), 624 nm. Also, the logε in data set [3] (Ethanol) amounted to 4.4; in data set [3] (Lipid vesicles), 4.4; in data set [3] (PBS buffer), 4.2. Moreover, the λmax abs in data set [3] (Ethanol) worked out at 453 nm; in data set [3] (Lipid vesicles) it was 422 nm; in data set [3] (PBS buffer) it was 395 nm. Further, the “Voltage sensitivity ΔF/F per 100 mV” value in data set [4] (Ex/Em 510/>695 nm) is 5% 510/ >695.

For the origin of these results see patent US8993258B2, “Fluorinated voltage sensitive dyes, preparation thereof, and optical methods of use” (The University of Connecticut, priority 2012, dated 2015).
